No end group written: not given here.
Key:
Assay type in all cases: cell-based
[1] = tested on: Bacillus subtilis (ATCC 62037); details: ATCC 62037, 12 h
From the text: (§1) The microorganisms used in the present invention include Gram-positive bacteria such as Bacillus subtilis (ATCC 62037), Staphylococcus aureus (ATCC 15752) and Streptococcus mutans (ATCC 25175), Gram-negative bacteria such as Escherichia coli (ATCC 27325), Salmonella enteritidis (ATCC 15277) and Pseudomonas putida (ATCC 17426) and fungi such as Candida albicans (ATCC 10231), Saccharomyces cerevisiae (ATCC 44774) and Cryptococcus neoformans (ATCC 34881), obtained from American Type Culture Collection (ATCC).
(§2) The antimicrobial activity of the peptides prepared in Example 1 was determined against microorganisms by 96-well microdilution minimal inhibitory concentration assay. After overnight culturing the bacteria and fungi in trypticase soy broth (TSB) and Saboraud (SAB) at 37° C. and 30° C., respectively, they were inoculated in new media and cultured for 2 hours to exponential growth phase. After diluting the microorganisms to 10^5 per 1 ml, 190 μl was inoculated in each 96-well plate, and 10 μl of serially diluted peptides were added in each well.

[2] = tested on: Candida albicans (ATCC 10231); details: ATCC 10231, 12 h
From the text: as §1, §2

[3] = tested on: Cryptococcus neoformans (ATCC 34881); details: ATCC 34881, 12 h
From the text: as §1, §2

[4] = tested on: Escherichia coli (ATCC 27325); details: ATCC 27325, 12 h
From the text: as §1, §2

[5] = tested on: Pseudomonas putida (ATCC 17426); details: ATCC 17426, 12 h
From the text: as §1, §2

[6] = tested on: Saccharomyces cerevisiae (ATCC 44774); details: ATCC 44774, 12 h
From the text: as §1, §2

[7] = tested on: Salmonella enteritidis (ATCC 15277); details: ATCC 15277, 12 h
From the text: as §1, §2

[8] = tested on: Staphylococcus aureus (ATCC 15752); details: ATCC 15752, 12 h
From the text: as §1, §2

[9] = tested on: Streptococcus mutans (ATCC 25175); details: ATCC 25175, 12 h
From the text: as §1, §2

Substance	Minimum Inhibitory Concentration [1] [µg/mL]	Minimum Inhibitory Concentration [2] [µg/mL]	Minimum Inhibitory Concentration [3] [µg/mL]	Minimum Inhibitory Concentration [4] [µg/mL]	Minimum Inhibitory Concentration [5] [µg/mL]	Minimum Inhibitory Concentration [6] [µg/mL]	Minimum Inhibitory Concentration [7] [µg/mL]	Minimum Inhibitory Concentration [8] [µg/mL]	Minimum Inhibitory Concentration [9] [µg/mL]
KLVRNFPVGKLVRKLVRKLVR [compound 34]	1	1	1	1	1	1	1	1	2
RVLKRVLKRVLKNWPIGRVLK-NH2 [compound 72]	1	1	1	1	1	2	1	1	2
RVLRQWPIGRVLRRVLRRVLR [compound 5]	1	1	1	1	1	2	1	1	1
RLVKNWPIGRLVKRLVKRLVK-NH2 [compound 70]	1	1	1	1	1	1	1	1	2
KLLKKLLKKLLKQWPIGKLLK [compound 38]	1	2	1	2	1	2	1	1	2
RVVRRVVRRVVRNWPIGRVVR [compound 52]	1	1	1	1	1	1	2	1	2
KLLRNWPIGKLLRKLLRKLLR [compound 29]	1	1	1	1	1	2	1	1	2
KVLRKVLRKVLRQWPIGKVLR-NH2 [compound 71]	1	1	1	1	1	2	1	1	1
RLVKNWPIGRLVKRLVKRLVK [compound 32]	1	1	1	1	1	2	1	1	2
KVVRQWPIGKVVRKVVRKVVR [compound 10]	1	2	1	1	1	2	1	1	2
RVLRRVLRRVLRQWPIGRVLR [compound 39]	2	2	1	1	1	2	1	2	2
RVVKRVVKRVVKNWPIGRVVK [compound 60]	1	1	1	2	1	1	2	2	2
KVVKKVVKKVVKNWPIGKVVK [compound 53]	1	2	1	1	1	1	1	1	1
KVVRKVVRKVVRQWPIGKVVR [compound 44]	2	2	1	1	1	1	1	1	2
KVVKQWPIGKVVKKVVKKVVK [compound 2]	1	1	1	1	1	2	1	1	2
RVVRRVVRRVVRQWPIGRVVR [compound 35]	1	1	1	2	1	2	1	1	1
KVLKKVLKKVLKNWPIGKVLK [compound 57]	1	1	1	2	1	2	1	1	2
RVVKNWPIGRVVKRVVKRVVK [compound 26]	1	2	1	2	1	2	1	1	1
KLVKKLVKKLVKQWPIGKLVK [compound 42]	1	1	1	1	1	1	1	1	2
KLVRKLVRKLVRQFPVGKLVR [compound 51]	1	1	1	1	1	2	2	1	1

— patent publication US7348402B2, “Antimicrobial peptide, its analogs and antimicrobial composition comprising them” (priority 2002, dated 2008)
